Laboratory results as given in patent US11058690B2, “Use of cytochrome bc1 complex inhibitor in preparing pharmaceutical composition” (BEIJING WEILANZHIYUAN MEDICAL TECHNOLOGY CO., LTD., priority 2017, dated 2021).

How the values were obtained:
[1] = test system: Mouse mononuclear macrophage RAW 264.7; test: nitric oxide production by LPS-stimulated macrophages (Griess assay); type: cell-based; details: LPS 1 μg/mL, 24 h
Kunming male mice = test: acetic acid writhing test on mice; type: in vivo, mouse; details: for Writhe starting time / Number of writhing times: Table 3; for Number of writhing times: within 30 min
[2] = test system: rat uterine smooth muscle; test: contraction of isolated rat uterine smooth muscle strips induced by PGF2α; type: cell-based; details: PGF2α (450 nM); for IC50: area under the contraction curve 10 minutes after drug, read-out: IC50, inhibition of uterine smooth muscle contraction
Description: Female healthy Wistar rats weighing 230-270 g were used in the experiment. At 2 days before the experiment, Diethylstilbestrol suspension was injected intraperitoneally once at 0.1 mg/kg, resulting in artificial estrus. The rats were sacrificed by cervical dislocation, and the uterus was removed by laparotomy and immediately placed in a glass plate containing Tyrode's solution. Connective and adipose tissues attached to the uterine wall were carefully peeled off, the uterus was cut open along the mesangial line and laid flat on the bottom of the glass plate, then one side of the uterus was divided into left and right uterine muscle strips by using a surgical blade along the uterine contraction band running along smooth muscle, the two ends of the uterine muscle strip on one side were ligated with wires respectively, and then transferred into a nutrient tube which was aerated with oxygen and filled with 5 ml of Tyrode's solution and preheated to 37.2±0.5° C., with a lower end fixed and an upper end connected with a tension sensor. The materials stood for 20-30 minutes, liquid was changed 2-3 times, then the uterus was given a load of 1 g and kept for 30-60 minutes until the uterus had regular contraction waves, 40 mM KCL solution was provided for 10 minutes, and the function of the uterine muscle strips was evaluated. Then the muscle strips were relaxed and washed 2-3 times with Tyrode's solution, then let stand for 30 minutes; after standing, the uterine muscle strips were given a load of 1 g and kept for 30-60 minutes, and the administration and the observation were carried out after the uterine muscle strips contracted stably (i.e. regular contraction waveforms appear in a microcomputer display screen), the changes of relevant data such as contraction tension, amplitude and area under the contraction curve of the uterine smooth muscle strips were recorded, and the drug given was evaluated. During the experiment, the working temperature of the Tyrode's solution was kept at 37.2±0.5° C., and oxygen was continuously aerated into the nutrient tube with 1-2 bubbles per second. A cumulative dosing method was adopted, and 5 μl was administered each time, from low concentration to high concentration. A final drug concentration refers to the concentration of the drug dissolved in 5 ml Tyrode's solution in a […] tube.
Fluacrypyrim (FAPM), the first strobilurin acaricide developed by BASF SE and Nippon Soda Co., Ltd., is a Qo site inhibitor of the mitochondrial cytochrome bc1 complex. […] The area under the smooth muscle contraction curve was calculated before drug intervention and 10 minutes after different doses of drug intervention respectively. A drug dose-effect curve was plotted by taking the area under the smooth muscle contraction curve caused by PGF2α as 100%, to calculate the median effective dose (IC50 value) of the drug for inhibiting uterine smooth muscle contraction.

[3] = test system: rat uterine smooth muscle; test: contraction of rat uterine smooth muscle induced by potassium chloride; type: cell-based; details: potassium chloride (16 mM)
Description: (§1) Female healthy Wistar rats weighing 230-270 g were used in the experiment. At 2 days before the experiment, Diethylstilbestrol suspension was injected intraperitoneally once at 0.1 mg/kg, resulting in artificial estrus. The rats were sacrificed by cervical dislocation, and the uterus was removed by laparotomy and immediately placed in a glass plate containing Tyrode's solution. […] The materials stood for 20-30 minutes, liquid was changed 2-3 times, then the uterus was given a load of 1 g and kept for 30-60 minutes until the uterus had regular contraction waves, 40 mM KCL solution was provided for 10 minutes, and the function of the uterine muscle strips was evaluated. Then the muscle strips were relaxed and washed 2-3 times with Tyrode's solution, then let stand for 30 minutes; after standing, the uterine muscle strips were given a load of 1 g and kept for 30-60 minutes, and the administration and the observation were carried out after the uterine muscle strips contracted stably (i.e. regular contraction waveforms appear in a microcomputer display screen), the changes of relevant data such as contraction tension, amplitude and area under the contraction curve of the uterine smooth muscle strips were recorded, and the drug given was evaluated. […]

Kunming female mice = test: PGF2α-induced dysmenorrhea model in mice (diethylstilbestrol sensitization); type: in vivo, mouse; details: for Number of writhing times: within 30 min
Description: A mouse dysmenorrhea model was established with reference to Yang L., Cao Z., Yu B. & Chai C. An in vivo mouse model of primary dysmenorrhea. Exp Anim. 2015, August 64, 295-303. Adult healthy Kunming female mice were randomly grouped, 10 mice in each group. Experimental mice were intragastrically given diethylstilbestrol 0.2 mg daily for 12 days. Different kinds and dosages of the inhibitors of the cytochrome bc1 complex were given intraperitoneally or intragastrically 30 min after the last administration. Indometacin (50 mg/kg) was injected intraperitoneally as positive control, PGF2α (1.3 mg/kg) or oxytocin (20 U/kg) was injected intraperitoneally 1 h later, and the writhe starting time (reaction latency) and the number of writhing times within 30 min were observed and recorded.

[4] = test system: rat uterine smooth muscle; test: contraction of rat uterine smooth muscle induced by oxytocin; type: cell-based; details: oxytocin (1 mU/ml)
Description: as §1

mice = test: xylene-induced mouse ear swelling test; type: in vivo
Description: Fifty healthy adult male mice were randomly divided into 5 groups. […] […] One hour after administration, 20 μL of xylene was evenly applied to both sides of the right ear of mouse, and xylene was not applied to the left ear as self control. One hour later, the two ears were cut off, and two ear pieces were removed from the same parts of the two ears with a 6 mm hole punch. The two ear pieces were weighed on a precision balance, and the swelling degree (right ear piece weight-left ear piece weight) and swelling inhibition rate (right ear piece weight-left ear piece weight)/left ear piece weight×100%) were calculated.

[5] = test system: rat uterine smooth muscle; test: contraction of rat uterine smooth muscle induced by acetylcholine; type: cell-based; details: acetylcholine (0.25 μM)
Description: as §1

[6] = Table 7, 100 mg/Kg intraperitoneal
[7] = Table 7, 200 mg/Kg intraperitoneal

**Q.** What does the source list for `CO/C=C(/C(=O)OC)c1ccccc1COc1cc(C(F)(F)F)nc(OC(C)C)n1` [FAPM, fluacrypyrim]?
**A.** Maximum inhibition rate ([1]; in %): 80%; IC50 ([1]; Mus musculus, RAW264.7, read-out: IC50, NO production): 3800 nM; curative effect compared with indomethacin (Kunming male mice; 100 mg/Kg versus indomethacin 50 mg/Kg): equivalent to indomethacin at 50 mg/Kg; writhe starting time (reaction latency) compared with control group (Kunming male mice; FAPM and trifloxystrobin intraperitoneal, azoxystrobin intragastric): significantly prolonged; Writhe starting time (Kunming male mice; 50 mg/Kg intraperitoneal): 3.4 ± 1.1 min; Number of writhing times (Kunming male mice; 50 mg/Kg intraperitoneal, 1 hour before acetic acid): 25.3 ± 4.7; Writhe starting time (Kunming male mice; 100 mg/Kg intraperitoneal): 4.6 ± 1.5 min; Number of writhing times (Kunming male mice; 100 mg/Kg intraperitoneal): 17.6 ± 3.5; Writhe starting time (Kunming male mice; 200 mg/Kg intraperitoneal): 11.9 ± 2.6 min; Number of writhing times (Kunming male mice; 200 mg/Kg intraperitoneal): 2.4 ± 2.2; inhibitory effect on PGF2α-induced contraction ([2]; amplitude and frequency): in a dose-dependent manner; IC50 [2]: 1690 ± 160 nM; IC50 ([2]; Rattus norvegicus, 10 min): 1840 ± 80 nM; IC50 [3]: 1210 ± 70 nM; curative effect compared with indomethacin (Kunming female mice; 50 mg/Kg versus indomethacin 50 mg/Kg): equivalent to indomethacin at 50 mg/Kg; Writhe starting time (Kunming female mice; 200 mg/Kg intraperitoneal): significantly prolonged; effect on number of writhing times (Kunming female mice; FAPM intraperitoneal, azoxystrobin intragastric, 50, 100 and 200 mg/Kg one hour before): in a dose-dependent manner; Writhe starting time (Kunming female mice; Table 7, 50 mg/Kg intraperitoneal): 1.24 ± 0.66 min; Number of writhing times (Kunming female mice; Table 7, 50 mg/Kg intraperitoneal, 1 h before PGF2α (1.3 mg/kg)): 18.3 ± 3.3; Writhe starting time (Kunming female mice; [6]): 1.43 ± 0.73 min; Number of writhing times (Kunming female mice; [6]): 12.5 ± 1.7; Writhe starting time (Kunming female mice; [7]): 2.15 ± 0.34 min; Number of writhing times (Kunming female mice; [7]): 5.8 ± 1.2; IC50 [4]: 1600 ± 80 nM; Ear swelling (mice; 100 mg/Kg intraperitoneal, 1 hour after xylene): 7.83 ± 3.85 mg; xylene-induced mouse ear swelling (mice; 100 mg/kg intraperitoneal): significantly inhibited; IC50 [5]: 1360 ± 40 nM
